Reference: paper PMC6559721 (Biochemistry, 2017)

Biological target: BthII1283 (Burkholderia thailandensis, UniProt Q2T5S0)

Compound: Cn1c(=O)[nH]c2nncnc2c1=O [1-DMT]
- HPLC and HRMS of methylation product: Reumycin (1-DMT) is converted to a single product with an identical retention time
